The supplement of paper PMC12137928
Structures can show the parent of a compound that is named as a salt.

Tested on: HCT116
Settings: 72 h
Procedure, shortened: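 For IC50 and maximal efficacy, four-parameter Hill fits were used. Input values were CellTiter-Glo luminescence from HCT116 cells seeded at 250 per well in 1536-well plates, normalized to vehicle (0%) and positive control (-100%). Pattern correction followed normalization.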

Row | Structure (SMILES) | IC50 cell viability (ICRF193 0 nM) | IC50 cell viability (ICRF193 200 nM)
1 | CCOC(CN1CCN(CC(C)C(=O)c2ccccc2)CC1)c1ccccc1 (stereo not given) [Eprazinone dihydrochloride] | > 45.8 µM | > 45.8 µM
2 | COC(F)(F)C(Cl)Cl [Methoxyflurane] | > 45.8 µM | > 45.8 µM
3 | CC1(C)O[C@@H]2[C@@H](CO[C@@]3(COS(N)(=O)=O)OC(C)(C)O[C@@H]23)O1 [Topiramate] | > 45.8 µM | > 45.8 µM
4 | CCC(c1ccccc1)c1noc(CCN(CC)CC)n1 (stereo not given) [Proxazole citrate] | > 45.8 µM | > 45.8 µM
5 | CN(C)CCCOc1nn(Cc2ccccc2)c2ccccc12 [Benzydamine hydrochloride] | > 45.8 µM | > 45.8 µM
6 | CCOC(=O)[C@H](CCc1ccccc1)N[C@@H](C)C(=O)N1Cc2cc(OC)c(OC)cc2C[C@H]1C(=O)O [Moexipril hydrochloride] | > 45.8 µM | > 45.8 µM
7 | O=C1CC[C@@H](C(=O)O)N1 [2-Pyrrolidone-5-carboxylic acid] | > 45.8 µM | > 45.8 µM
8 | CCOc1ccc2c3c1O[C@H]1[C@@H](O)C=C[C@H]4[C@@H](C2)N(C)CC[C@@]341 [Ethylmorphine] | > 45.8 µM | > 45.8 µM
9 | CCOC(=O)/C=C(C)/C=C/C[C@@H](C)CCCC(C)C [S-Hydroprene] | > 45.8 µM | > 45.8 µM
10 | CC(C)NCCCC1(C(N)=O)c2ccccc2-c2ccccc21 [Indecainide] | > 45.8 µM | > 45.8 µM
11 | CN(C)CCC(c1ccccc1)c1ccccn1 (stereo not given) [Pheniramine maleate] | > 45.8 µM | > 45.8 µM
12 | CN(C)[C@@H]1C(O)=C(C(N)=O)C(=O)[C@@]2(O)C(O)=C3C(=O)c4c(O)cccc4[C@@](C)(O)[C@H]3[C@H](O)[C@@H]12 [Oxytetracycline] | > 45.8 µM | > 45.8 µM
13 | Cl[C@H]1[C@H](Cl)[C@@H](Cl)[C@@H](Cl)[C@H](Cl)[C@H]1Cl [LINDANE] | > 45.8 µM | > 45.8 µM
14 | O=C(Nc1c(Cl)cncc1Cl)c1ccc(OC(F)F)c(OCC2CC2)c1 [Roflumilast] | > 45.8 µM | > 45.8 µM
15 | CC(C)[C@H](N)C(=O)O [L-Valine] | > 45.8 µM | > 45.8 µM
16 | Cc1cc2c(cc1CC(=O)c1sccc1S(=O)(=O)Nc1onc(C)c1Cl)OCO2 [Sitaxentan] | > 45.8 µM | > 45.8 µM
17 | CC(C)CCC(=O)O[C@H]1CC[C@H]2[C@@H]3CCC4=CC(=O)CC[C@]4(C)[C@H]3CC[C@]12C [Testosterone isocaproate] | > 45.8 µM | > 45.8 µM
18 | CCOC(=O)[C@H](CCc1ccccc1)N[C@@H](C)C(=O)N1[C@H](C(=O)O)C[C@@H]2CCC[C@@H]21 [Ramipril] | > 45.8 µM | > 45.8 µM
19 | CC1(C)S[C@@H]2[C@H](NC(=O)[C@H](C(=O)O)c3ccsc3)C(=O)N2[C@H]1C(=O)O [Ticarcillin sodium] | > 45.8 µM | > 45.8 µM
20 | Cn1sc(Cl)cc1=O [5-Chloro-2-methyl-3(2H)-isothiazolone] | > 45.8 µM | > 45.8 µM
21 | O=C(Oc1ccccc1)c1ccccc1O [Phenyl salicylate] | > 45.8 µM | > 45.8 µM
22 | Cc1c(C)c2c(c(C)c1O)CCC(C)(COc1ccc(CC3SC(=O)NC3=O)cc1)O2 (stereo not given) [Troglitazone] | > 45.8 µM | > 45.8 µM
23 | NS(=O)(=O)c1cc(C(=O)NN2C[C@@H]3[C@H]4CC[C@H](C4)[C@@H]3C2)ccc1Cl [Tripamide] | > 45.8 µM | > 45.8 µM
24 | CC(C)[N+]1(C)[C@@H]2CC[C@H]1C[C@@H](OC(=O)C(CO)c1ccccc1)C2 (stereo not given in full) [Ipratropium bromide] | > 45.8 µM | > 45.8 µM
25 | CCCCNC(=O)NS(=O)(=O)c1ccc(C)cc1 [Tolbutamide] | > 45.8 µM | > 45.8 µM
